Source: ChEMBL document CHEMBL5053535, “Design, synthesis and biological evaluation of novel aminopyrazole- and 7-azaindole-based Nek1 inhibitors and their effects on zebrafish kidney development” (Bioorg Med Chem Lett, 2021)
≈ marks a conversion by molar mass, not a printed value.

What was measured:
[1] = Toxicity in zebra fish embryos assessed as lethality at 1.5 uM measured after 24 hrs relative to control; type: organism-based, Danio rerio; conditions: zebrafish, in vivo, read-out: Activity
Danio rerio [2] = species: Danio rerio; assay: Toxicity in zebra fish embryos assessed as adverse effects at >0.1 uM measured over 96 hrs; type: organism-based; conditions: zebrafish, in vivo
Danio rerio [3] = species: Danio rerio; assay: Toxicity in zebra fish embryos assessed as enlarged yolk sac at 0.1 uM measured after 96 hrs; type: organism-based; conditions: zebrafish, in vivo
Danio rerio [4] = species: Danio rerio; assay: Toxicity in zebra fish embryos assessed as curved tail at 0.1 uM measured after 96 hrs; type: organism-based; conditions: zebrafish, in vivo
Danio rerio [5] = species: Danio rerio; assay: Toxicity in zebra fish embryos assessed as phenotype changes at 0.01 to 2.5 uM measured after 96 hrs; type: organism-based; conditions: zebrafish, in vivo, dose 0.01-2.5 µM
Danio rerio [6] = species: Danio rerio; assay: Toxicity in wild type zebra fish model of polycystic kidney disease assessed as increase in fluorescence intensity at 0.1 uM incubated for 48 hrs in presence of N-phenyl thiourea further treated with PT-yellow for 20 mins followed by dye washout and incubated in solution containing compound for 96 hrs by fluorescence imaging analysis; type: organism-based; conditions: zebrafish, in vivo
[7] = molecular target: T1, Serine/threonine-protein kinase Nek1 (Homo sapiens) (UniProt Q96PY6); assay: Inhibition of human NEK1 using myelin basic protein as substrate assessed as residual activity at 1 uM in presence of [gamma-33P]-ATP by radiometric hotspot kinase assay relative to control
T1 sequence (whole entry): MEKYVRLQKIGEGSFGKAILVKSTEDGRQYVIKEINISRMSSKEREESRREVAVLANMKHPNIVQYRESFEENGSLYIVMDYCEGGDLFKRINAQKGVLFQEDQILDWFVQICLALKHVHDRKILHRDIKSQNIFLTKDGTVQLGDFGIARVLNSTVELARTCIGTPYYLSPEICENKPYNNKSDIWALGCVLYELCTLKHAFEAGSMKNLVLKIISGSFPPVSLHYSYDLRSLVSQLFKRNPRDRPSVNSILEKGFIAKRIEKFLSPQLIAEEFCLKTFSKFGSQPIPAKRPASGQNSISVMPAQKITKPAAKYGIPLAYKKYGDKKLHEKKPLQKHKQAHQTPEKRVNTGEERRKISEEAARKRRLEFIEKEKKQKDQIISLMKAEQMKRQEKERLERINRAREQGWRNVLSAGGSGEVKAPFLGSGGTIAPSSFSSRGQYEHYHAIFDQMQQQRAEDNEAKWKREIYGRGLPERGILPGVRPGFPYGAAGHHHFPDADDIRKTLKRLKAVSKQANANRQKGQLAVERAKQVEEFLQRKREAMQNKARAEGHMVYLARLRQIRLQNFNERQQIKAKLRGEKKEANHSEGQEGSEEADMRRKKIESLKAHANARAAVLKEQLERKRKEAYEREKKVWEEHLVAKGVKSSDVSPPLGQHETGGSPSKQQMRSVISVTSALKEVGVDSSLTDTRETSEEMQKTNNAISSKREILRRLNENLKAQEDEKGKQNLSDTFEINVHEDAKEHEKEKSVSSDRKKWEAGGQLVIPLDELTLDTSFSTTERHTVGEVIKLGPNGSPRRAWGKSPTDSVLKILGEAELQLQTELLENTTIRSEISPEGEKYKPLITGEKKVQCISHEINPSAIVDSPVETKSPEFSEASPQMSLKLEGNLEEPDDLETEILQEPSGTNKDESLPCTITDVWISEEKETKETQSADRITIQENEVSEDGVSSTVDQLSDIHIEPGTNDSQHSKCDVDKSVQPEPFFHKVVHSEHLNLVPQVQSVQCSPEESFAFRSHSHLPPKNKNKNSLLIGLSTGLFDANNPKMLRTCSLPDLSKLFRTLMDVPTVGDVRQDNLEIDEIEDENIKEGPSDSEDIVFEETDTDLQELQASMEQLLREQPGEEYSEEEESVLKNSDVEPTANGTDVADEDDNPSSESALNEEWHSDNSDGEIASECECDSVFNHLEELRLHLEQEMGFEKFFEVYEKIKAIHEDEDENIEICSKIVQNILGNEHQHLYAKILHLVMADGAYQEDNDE

[8] = molecular target: T2, Serine/threonine-protein kinase Nek1 (Homo sapiens, UniProt Q96PY6); assay: Inhibition of human NEK1 using myelin basic protein as substrate assessed as residual activity in presence of [gamma-33P]-ATP by radiometric hotspot kinase assay relative to control
T2 sequence (Q96PY6 whole entry): T1 sequence (whole entry)

[9] = molecular target: Cyclin-dependent kinase 2/cyclin E1 (Homo sapiens) (UniProt P24864+P24941); assay: Inhibition of human recombinant full length C-terminal His6 tagged CDK2/ N-terminal GST-tagged Cyclin E expressed in baculovirus infected Sf21 insect cells using histone H1 as substrate assessed as residual activity at 1 uM pretreated for 20 mins followed by [33P]-ATP addition measured after 120 mins by radiometric hotspot kinase assay relative to control; conditions: time 140.0 min
[10] = molecular target: T3, Serine/threonine-protein kinase Chk1 (Homo sapiens) (UniProt O14757); assay: Inhibition of human recombinant full length N-terminal His tagged CHK1 expressed in baculovirus infected Sf21 insect cells using CHKtide as substrate assessed as residual activity at 1 uM pretreated for 20 mins followed by [33P]-ATP addition measured after 120 mins by radiometric hotspot kinase assay relative to control; conditions: time 140.0 min
T3 sequence (whole entry): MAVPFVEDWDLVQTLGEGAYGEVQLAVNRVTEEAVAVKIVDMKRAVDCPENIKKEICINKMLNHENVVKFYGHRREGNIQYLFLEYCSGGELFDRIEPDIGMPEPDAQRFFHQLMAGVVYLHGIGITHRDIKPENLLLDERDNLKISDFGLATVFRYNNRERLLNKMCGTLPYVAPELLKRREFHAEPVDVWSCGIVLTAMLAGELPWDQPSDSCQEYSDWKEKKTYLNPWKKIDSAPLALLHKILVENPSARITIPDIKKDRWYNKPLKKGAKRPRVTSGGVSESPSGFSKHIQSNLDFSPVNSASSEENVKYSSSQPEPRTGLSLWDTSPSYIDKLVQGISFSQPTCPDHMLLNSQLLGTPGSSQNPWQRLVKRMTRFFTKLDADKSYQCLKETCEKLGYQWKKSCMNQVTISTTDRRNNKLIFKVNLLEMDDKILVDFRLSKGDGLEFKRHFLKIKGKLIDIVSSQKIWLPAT

[11] = molecular target: Vascular endothelial growth factor receptor 2 (Homo sapiens) (UniProt P35968); assay: Inhibition of human recombinant C-terminal His6 tagged VEGFR2 (789 to 1356 residues) expressed in baculovirus infected insect cells assessed as residual activity at 1 uM pretreated for 20 mins followed by [33P]-ATP addition measured after 120 mins by radiometric hotspot kinase assay relative to control; conditions: time 140.0 min
Sequence of Vascular endothelial growth factor receptor 2 (Homo sapiens) (P35968 whole entry, the tested form may be a part): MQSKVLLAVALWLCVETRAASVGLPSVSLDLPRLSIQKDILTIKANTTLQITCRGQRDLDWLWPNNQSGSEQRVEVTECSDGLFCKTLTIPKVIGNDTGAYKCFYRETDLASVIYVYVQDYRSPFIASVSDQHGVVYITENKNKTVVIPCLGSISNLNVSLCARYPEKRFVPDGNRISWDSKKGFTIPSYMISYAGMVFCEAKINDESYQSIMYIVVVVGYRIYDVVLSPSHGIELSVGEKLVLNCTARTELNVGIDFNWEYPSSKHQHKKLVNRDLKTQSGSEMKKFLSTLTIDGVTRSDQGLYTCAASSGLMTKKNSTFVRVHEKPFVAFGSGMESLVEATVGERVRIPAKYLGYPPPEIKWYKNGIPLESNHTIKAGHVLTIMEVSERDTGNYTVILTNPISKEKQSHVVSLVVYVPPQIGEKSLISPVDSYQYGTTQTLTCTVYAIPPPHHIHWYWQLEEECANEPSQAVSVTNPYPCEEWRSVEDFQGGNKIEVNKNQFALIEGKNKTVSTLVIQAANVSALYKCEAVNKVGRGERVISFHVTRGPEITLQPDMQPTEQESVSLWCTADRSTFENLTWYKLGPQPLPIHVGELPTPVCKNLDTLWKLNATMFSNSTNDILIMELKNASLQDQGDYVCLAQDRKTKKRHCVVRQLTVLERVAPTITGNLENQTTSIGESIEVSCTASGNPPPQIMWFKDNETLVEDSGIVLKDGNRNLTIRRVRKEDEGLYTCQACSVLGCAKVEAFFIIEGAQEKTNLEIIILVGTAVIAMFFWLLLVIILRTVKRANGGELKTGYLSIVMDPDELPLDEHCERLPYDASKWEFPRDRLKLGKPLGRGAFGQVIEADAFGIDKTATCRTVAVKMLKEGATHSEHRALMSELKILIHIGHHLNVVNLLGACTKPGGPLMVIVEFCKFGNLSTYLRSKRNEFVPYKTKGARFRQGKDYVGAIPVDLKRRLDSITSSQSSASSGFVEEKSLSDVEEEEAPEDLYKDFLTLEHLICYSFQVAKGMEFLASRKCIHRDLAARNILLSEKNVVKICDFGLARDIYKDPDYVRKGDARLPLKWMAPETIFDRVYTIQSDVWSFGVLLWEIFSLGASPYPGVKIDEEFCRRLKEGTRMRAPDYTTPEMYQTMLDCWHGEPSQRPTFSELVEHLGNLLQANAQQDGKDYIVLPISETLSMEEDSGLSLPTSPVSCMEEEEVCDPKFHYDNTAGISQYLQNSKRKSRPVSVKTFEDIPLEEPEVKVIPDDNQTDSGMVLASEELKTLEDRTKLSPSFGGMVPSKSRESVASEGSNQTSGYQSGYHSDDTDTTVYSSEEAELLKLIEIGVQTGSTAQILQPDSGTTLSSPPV

[12] = molecular target: T4, Serine/threonine-protein kinase Nek5 (Homo sapiens) (UniProt Q6P3R8); assay: Inhibition of human recombinant NEK5 assessed as residual activity at 1 uM pretreated for 20 mins followed by [33P]-ATP addition measured after 120 mins by radiometric hotspot kinase assay relative to control; conditions: time 140.0 min
T4 sequence (whole entry): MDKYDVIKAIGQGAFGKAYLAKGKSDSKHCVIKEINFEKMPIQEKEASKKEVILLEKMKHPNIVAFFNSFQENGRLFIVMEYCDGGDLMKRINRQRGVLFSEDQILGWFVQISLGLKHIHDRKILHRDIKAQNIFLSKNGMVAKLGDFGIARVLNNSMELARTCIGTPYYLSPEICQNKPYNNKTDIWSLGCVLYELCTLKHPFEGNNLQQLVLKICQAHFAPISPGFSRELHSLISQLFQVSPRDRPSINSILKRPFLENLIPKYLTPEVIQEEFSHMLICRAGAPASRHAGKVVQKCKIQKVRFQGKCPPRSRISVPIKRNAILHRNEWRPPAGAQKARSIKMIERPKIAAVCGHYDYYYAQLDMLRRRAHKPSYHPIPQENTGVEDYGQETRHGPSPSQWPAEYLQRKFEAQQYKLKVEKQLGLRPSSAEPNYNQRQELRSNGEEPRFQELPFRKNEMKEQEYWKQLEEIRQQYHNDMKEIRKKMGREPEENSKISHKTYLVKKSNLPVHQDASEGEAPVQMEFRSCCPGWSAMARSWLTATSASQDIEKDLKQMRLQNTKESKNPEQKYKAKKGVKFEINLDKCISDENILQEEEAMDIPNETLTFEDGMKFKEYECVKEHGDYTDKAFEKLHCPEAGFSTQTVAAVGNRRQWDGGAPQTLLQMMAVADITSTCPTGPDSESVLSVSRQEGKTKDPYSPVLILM

[13] = molecular target: Wee1-like protein kinase (Homo sapiens) (UniProt P30291); assay: Inhibition of human recombinant full length WEE1 expressed in insect cells using MBP as substrate assessed as residual activity at 1 uM pretreated for 20 mins followed by [33P]-ATP addition measured after 120 mins by radiometric hotspot kinase assay relative to control; conditions: time 140.0 min
Sequence of Wee1-like protein kinase (Homo sapiens) (P30291 whole entry, looked up): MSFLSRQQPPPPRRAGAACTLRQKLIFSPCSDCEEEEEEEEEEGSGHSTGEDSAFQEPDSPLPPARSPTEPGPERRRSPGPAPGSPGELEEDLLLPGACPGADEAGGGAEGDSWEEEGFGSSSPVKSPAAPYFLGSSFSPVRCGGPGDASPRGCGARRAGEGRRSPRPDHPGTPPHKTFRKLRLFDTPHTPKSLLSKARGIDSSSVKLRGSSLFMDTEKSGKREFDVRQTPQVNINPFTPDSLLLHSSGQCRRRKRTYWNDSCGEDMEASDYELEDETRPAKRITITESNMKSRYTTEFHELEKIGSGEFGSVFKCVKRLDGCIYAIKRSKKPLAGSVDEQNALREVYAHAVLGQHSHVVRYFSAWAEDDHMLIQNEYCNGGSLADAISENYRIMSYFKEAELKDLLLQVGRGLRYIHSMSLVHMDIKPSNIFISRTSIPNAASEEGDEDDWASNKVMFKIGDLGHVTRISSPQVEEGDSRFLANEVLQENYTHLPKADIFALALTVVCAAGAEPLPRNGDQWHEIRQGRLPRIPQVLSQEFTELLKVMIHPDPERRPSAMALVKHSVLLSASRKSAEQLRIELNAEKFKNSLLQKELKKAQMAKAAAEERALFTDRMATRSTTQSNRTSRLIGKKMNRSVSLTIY

[14] = Solubility of the compound in E3 medium with 0.2% DMSO by DAD-HPLC based shake flask method; type: physicochemical
[15] = Solubility of the compound in DMEM with 1% DMSO by DAD-HPLC based shake flask method; type: physicochemical
[16] = Stability of the compound in DMEM measured after 48 hrs by DAD-HPLC method; type: physicochemical; conditions: read-out: Stability
[17] = Permeability across apical to basolateral side in human Caco-2 cells at pH 6.5 at 1 uM; type: ADME, cell-based; conditions: Caco-2, pH 6.5, read-out: permeability
[18] = Permeability across apical to basolateral side in human Caco-2 cells at pH 6.5 assessed as compound recovery at 1 uM; type: ADME, cell-based; conditions: Caco-2, pH 6.5, read-out: Drug recovery
[19] = Permeability across basolateral to apical side in human Caco-2 cells at pH 7.4 at 1 uM; type: ADME, cell-based; conditions: Caco-2, pH 7.4, read-out: permeability
[20] = Permeability across basolateral to apical side in human Caco-2 cells at pH 7.4 assessed as compound recovery at 1 uM; type: ADME, cell-based; conditions: Caco-2, pH 7.4, read-out: Drug recovery
Danio rerio [21] = species: Danio rerio; assay: Toxicity in zebra fish embryos assessed as reduction in heart beat at 1 uM measured every 24 hrs for 120 hrs; type: organism-based; conditions: zebrafish, in vivo
Danio rerio [22] = species: Danio rerio; assay: Toxicity in zebra fish embryos assessed as overall survival at 0.01 to 2.5 uM measured after 96 hrs; type: organism-based; conditions: zebrafish, in vivo, dose 0.01-2.5 µM
Danio rerio [23] = species: Danio rerio; assay: Toxicity in wild type zebra fish model of polycystic kidney disease assessed as increase in fluorescence intensity at 2.5 uM incubated for 48 hrs in presence of N-phenyl thiourea further treated with PT-yellow for 20 mins followed by dye washout and incubated in solution containing compound for 96 hrs by fluorescence imaging analysis; type: organism-based; conditions: zebrafish, in vivo
Danio rerio [24] = species: Danio rerio; assay: Toxicity in wild type zebra fish model of polycystic kidney disease assessed as minor tubular volume expansion at 2.5 uM incubated for 48 hrs in presence of N-phenyl thiourea further treated with PT-yellow for 20 mins followed by dye washout and incubated in solution containing compound for 96 hrs by fluorescence imaging analysis; type: organism-based; conditions: zebrafish, in vivo

Row | SMILES | Activity [7] | IC50 [8] | Activity [9] | Activity [10] | Activity [11] | Activity [12] | Activity [13] | solubility [14] | solubility [15] | remaining at 48 h [16] | also measured
1 | Cc1nc(N)sc1-c1ccnc(Nc2cccc([N+](=O)[O-])c2)n1 | – | – | – | – | – | – | – | – | – | – | mortality at 24 h, 1.5 µM [1]: 100%; Activity (Danio rerio [2]): Toxic; Activity (Danio rerio [3]): Toxic; Activity (Danio rerio [4]): Toxic; Activity (Danio rerio [5]): Non-Toxic; Activity (Danio rerio [6]): Toxic
2 | COC(=O)c1cccc(-c2cnc3[nH]cc(-c4cncnc4)c3c2)c1 | 5.89% | 0.0625 µM | 22.3% | 73.8% | 61.3% | 23.3% | 76.2% | 4.6 µM (≈ 1.52 µg/mL) | 28.6 µM (≈ 9.45 µg/mL) | 72% | Papp A→B at 1 µM [17]: 3.7 nm/s; recovery at 1 µM [18]: 1.5%; Papp B→A at 1 µM [19]: 2.1 nm/s; recovery at 1 µM [20]: 41.1%
3 | COC(=O)c1cccc(-c2cnc3[nH]cc(-c4cccc(OC)c4)c3c2)c1 | 12.4% | 0.166 µM | 19.3% | > 100% | 94.1% | 90% | > 100% | 1 µM (≈ 0.358 µg/mL) | 2 µM (≈ 0.717 µg/mL) | 97% | Activity (Danio rerio [21]): Non-Toxic
4 | COC(=O)c1cccc(-c2cnc3[nH]cc(-c4ccncc4)c3c2)c1 | 13% | 0.14 µM | 1.8% | 85% | 79.4% | 58.5% | 78.9% | 30.9 µM (≈ 10.2 µg/mL) | 34 µM (≈ 11.2 µg/mL) | 88% | Activity (Danio rerio [22]): Non-Toxic; Activity (Danio rerio [23]): Toxic; Activity (Danio rerio [24]): Toxic
